Measured values from patent publication US5928933A, “Process for the enzymatic resolution of N-(alkoxycarbonyl)-4-ketoproline alkyl esters or N-(alkoxycarbonyl)-4-hydroxyproline alkyl esters using Candida antarctica lipase B” (priority 1998, dated 1999).
Read-outs that look alike come from different tables or passages of the source.

Legend:
Format in all cases: biochemical
[1] = biological target: T1, Candida antartica lipase fraction B (CALB) (Moesziomyces antarcticus, UniProt P41365); conditions: for resolution with high enantioselectivity: CALB or any of the other commercially-available esterases, lipases, and proteases screened (Examples 7, 8); for isomer remaining: candida antartica lipase b, 19000 µM, pH 5
T1 construct: purchased Boehringer Mannheim CHIRAZYME L-2
T1 sequence (P41365 26-342): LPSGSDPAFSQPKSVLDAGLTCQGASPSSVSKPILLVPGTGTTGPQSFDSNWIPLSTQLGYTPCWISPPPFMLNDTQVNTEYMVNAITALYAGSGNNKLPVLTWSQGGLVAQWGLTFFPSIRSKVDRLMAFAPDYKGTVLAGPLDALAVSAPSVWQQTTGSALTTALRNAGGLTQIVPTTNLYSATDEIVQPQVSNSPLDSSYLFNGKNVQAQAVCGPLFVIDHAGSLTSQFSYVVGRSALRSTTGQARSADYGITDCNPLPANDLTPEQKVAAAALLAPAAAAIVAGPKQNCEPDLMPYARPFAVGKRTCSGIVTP
Method: Reacting a 0.10M solution of the 1:1 mixture of KDP(MEMC) and KLP(MEMC) in 0.20M succinate (pH 6.0) at 25° C. for 5 h with approximately 1-3 mg/mL of Candida antartica lipase fraction B (CALB) produced a 95% ee (substrate) of KDP(MEMC) at 51% conversion. […] The calculated enantioselectivity (E) at 51% conversion was E=81.
The enzymatic hydrolysis reaction of KDP(MEMC) and KLP(MEMC) using CALB (described above) was repeated at pH 5.0 in 0.20M acetate buffer (Example 2), and a 100% ee (substrate) of the D-isomer was obtained at 51% conversion (E=>1000); the reaction rate was approximately 50% of the rate at pH 6.0, and the slight loss of the D-isomer at pH 5.0 was again observed in the absence of added enzyme (95% recovery at pH 5.0 after 24 h with no enzyme).
The procedure described in Example I was repeated using Candida antartica lipase fraction B (CALB), except that the reaction was run in 0.200M sodium cetate (pH 5.0) instead of the 0.20M sodium succinate buffer (pH 6.0) used for Candida antartica lipase fraction B in Example 1. Aqueous solutions (5.0 mL) containing varying concentrations of a racemic mixture of N-(methoxycarbonyl)-4-keto-D,L-proline methyl ester and CALB were mixed at 15° C., 25° C., 35° C. or 45° C.
An aqueous solution (5.0 mL) containing 25 mM N-(methoxycarbonyl)-4-keto-Dproline methyl ester and 25 mM N-(methoxycarbonyl)-4-keto-L-proline methyl ester in 0.200M sodium acetate (pH 5.0) was mixed with 2.5 g of immobilized Candida antartica lipase fraction B (Boehringer Mannheim, CHIRAZYME® L-2, c.-f., C2, lyo.) at 25° C. […] The dichloromethane extract was then analyzed by chiral gas chromatography on a Chiraldex G-TA column (Advanced Separation Technologies, Inc., 50 m×0.32 mm ID) to determine the amounts of the unreacted D- and L-isomers. After 31 h, an 85% enantiomeric excess of N-(methoxycarbonyl)-4-keto-D-proline methyl ester was obtained at 41% conversion of the racemic mixture.
A 200 mL aqueous solution containing 0.200M sodium acetate (pH 5.0), 1.3325 g of Candida antartica lipase fraction B, and 4.02 g of racemic N-(methoxycarbonyl)-4-keto-D,L-proline methyl ester (100 mM) was stirred at 25° C. After 24 h, an 96% enantiomeric excess of N-(methoxycarbonyl)-4-keto-D-proline methyl ester was obtained at 50% conversion of the racemic mixture. The reaction mixture was filtered using a 10,000 MWCO membrane filter (Amicon) to remove the enzyme catalyst, and the filtrate extracted with three 200 mL portions of dichloromethane. The combined organic extracts were dried over magnesium sulfate, filtered, and the dichloromethane removed from the filtrate by rotary evaporation at reduced pressure. Residual dichloromethane was removed from the resulting colorless oil at high vacuum (50 millitorr) to produce N-(methoxycarbonyl)-4-keto-D-proline methyl ester as a white solid (1.99 g, 99% isolated yield, 99% purity (by GC), 97% ee).
An aqueous solution (2.0 mL) containing 50 mM N-(ethoxycarbonyl)-4-keto-D-proline ethyl ester and 50 mM N-(ethoxycarbonyl)-4-keto-L-proline ethyl ester in 0.200M sodium acetate (pH 5.0) and 30 mg/mL of Candida antartica lipase fraction B was mixed at 25° C. […] The dichloromethane extract was then analyzed by chiral gas chromatography on a Chiraldex G-TA column (Advanced Separation Technologies, Inc., 50 m×0.32 mm ID) to determine the amounts of the unreacted D- and L-isomers. After 24 h, a 100% enantiomeric excess of N-(ethoxycarbonyl)-4-keto-D-proline ethyl ester was obtained at 51% conversion of the racemic mixture.
An aqueous solution (1.0 mL) containing 19 mM of N-(2-phenylacetyl)-4-keto-D-proline methyl ester and 19 mM of N-(2-phenylacetyl)-4-keto-L-proline methyl ester in 0.200M sodium acetate (pH 5.0) and 25 mg/mL of Candida antartica lipase fraction B was mixed at 25° C. […]

[2] = Enzyme screens for resolution of racemic N-(methoxycarbonyl)-4-keto-D,L-proline methyl ester (Example 1); conditions: 0.100M racemate, 5.0 to 50 mg/mL enzyme, 25° C., optimum
Method: An aqueous solution (1.0 mL) containing 0.100M racemic N-(methoxycarbonyl)-4-keto-D,L-proline methyl ester in either 0.20M sodium succinate (pH 6.0) or 0.20M sodium acetate (pH 5.0) was mixed with 5.0 to 50 mg/mL of commercial enzyme preparations (listed in the table below) at 25° C. […] The dichloromethane extract was then analyzed by chiral gas chromatography on a Chiraldex G-TA column (Advanced Separation Technologies, Inc., 50 m×0.32 mm ID) to determine the percent conversion of the racemate, and the enantiomeric excess of the N-(methoxycarbonyl)-4-keto-D-proline methyl ester.

[3] = Enzyme screens for resolution of diastereomeric mixture CHDP(MEMC)/THLP(MEMC) (Example 9); conditions: 0.050M each isomer, 5 h or 24 h, 5.0 to 50 mg/mL enzyme, 25° C.
Method: (§1) An aqueous solution (1.0 mL) containing 0.050M N-(methoxycarbonyl)-trans-4-hydroxy-L-proline methyl ester and 0.050M N-(methoxycarbonyl)-cis-4-hydroxy-D-proline methyl ester in 0.100M potassium phosphate (pH 7.0) was mixed with 5.0 to 50 mg/mL of commercial enzyme preparations (listed in the table below) at 25° C. The reactions were analyzed after 5 h or 24 h by removal of a 0.200 mL sample and mixing with an equivalent volume of 0.100M propionic acid (HPLC internal standard) in water. The resulting solution was filtered through a 10K molecular weight cut-off filter to remove the enzyme and the filtrate analyzed by high pressure liquid chromatography on a HPX-87H column (Bio-Rad, 30 cm×7.8 mm) to determine the percent conversion of each isomer of the diastereomeric mixture, and the diastereomeric excess of the N-(methoxycarbonyl)-cis-4-hydroxy-D-proline methyl ester.

[4] = Enzyme screens for resolution of diastereomeric mixture CHLP(MEMC)/THLP(MEMC) (Example 13); conditions: 0.050M each isomer, 5 h, 5.0 to 50 mg/mL enzyme, 25° C.
Method: as §1, with “solution” for “solution (1.0 mL)”, “N-(methoxycarbonyl)-cis-4-hydroxy-L-proline” for “N-(methoxycarbonyl)-cis-4-hydroxy-D-proline”, “5” for “5 h or 24”, “of” for “of each isomer of”

[5] = 19 mM each isomer, 25 mg/mL CALB, pH 5.0, 25° C., 28 h
[6] = 0.10M 1:1 mixture, 0.20M succinate pH 6.0, 25° C., 5 h, approximately 1-3 mg/mL CALB
[7] = 100 mM racemate, 10 mg/mL CALB, 25° C., 24 h, pH 5.0
[8] = 100 mM racemate, 20 mg/mL CALB, 45° C., 6 h, pH 5.0
[9] = 200 mM racemate, 6.7 mg/mL CALB, 35° C., 29 h, pH 5.0
[10] = 300 mM racemate, 31 mg/mL CALB, 45° C., 23 h, pH 5.0
[11] = 200 mL, 100 mM racemate, 1.3325 g CALB, pH 5.0, 25° C., 24 h
[12] = immobilized CALB 2.5 g in 5.0 mL, 25 mM each isomer, pH 5.0, 25° C., 31 h
[13] = 50 mM each isomer, 30 mg/mL CALB, pH 5.0, 25° C., 24 h
[14] = 0.100M potassium phosphate pH 7.0

Molecule: COC(=O)C1CC(=O)CN1C(=O)Cc1ccccc1 (racemic) [N-(2-phenylacetyl)-4-keto-D,L-proline methyl ester]
- conversion of the racemic mixture [1, 5]: 38%
- enantiomeric excess of the D-isomer [1, 5]: 55%

Molecule: COC(=O)C1CC(OC)(OC)CN1C(=O)OC (racemic) [N-(methoxycarbonyl)-4,4-dimethoxy-D,L-proline methyl ester]
- resolution with high enantioselectivity [1]: could not be resolved with high enantioselectivity

Molecule: COC(=O)[C@@H]1CC(=O)CN1C(=O)Cc1ccccc1 [N-(2-phenylacetyl)-4-keto-L-proline methyl ester]
- isomer remaining ([1]; 28 h): 28%

Molecule: COC(=O)C1CC(=O)CN1C(C)=O (racemic) [N-(acetyl)-4-keto-D,L-proline methyl ester]
- resolution with high enantioselectivity [1]: could not be resolved with high enantioselectivity

Molecule: COC(=O)C1CC(=O)CN1C(=O)OC (racemic) [N-(methoxycarbonyl)-4-keto-D,L-proline methyl ester]
- conversion [1, 6]: 51%
- ee (substrate) of KDP(MEMC) [1, 6]: 95%
- ee D-isomer [1, 7]: 100%
- racemate conv. [1, 7]: 51%
- ee D-isomer ([1]; 100 mM racemate, 20 mg/mL CALB, 15° C., 24 h, pH 5.0): 100%
- racemate conv. ([1]; 100 mM racemate, 20 mg/mL CALB, 15° C., 24 h, sodium acetate pH 5.0): 51%
- ee D-isomer [1, 8]: 100%
- racemate conv. [1, 8]: 50%
- conversion ([1]; 0.20M acetate buffer pH 5.0): 51%
- ee (substrate) of the D-isomer ([1]; 0.20M acetate buffer pH 5.0): 100%
- ee D-isomer [1, 9]: 97%
- racemate conv. [1, 9]: 51%
- ee D-isomer [1, 10]: 99%
- racemate conv. [1, 10]: 48%
- conversion of the racemic mixture [1, 11]: 50%
- enantiomeric excess of the D-isomer [1, 11]: 96%
- enantioselectivity (E) ([1]; at 51% conversion, pH 5.0): > 1000
- calculated enantioselectivity (E) ([1]; at 51% conversion, pH 6.0): 81
- conversion of the racemic mixture [1, 12]: 41%
- enantiomeric excess of the D-isomer [1, 12]: 85%
- reaction rate relative to the rate at pH 6.0 ([1]; pH 5.0): approximately 50%

Molecule: CCOC(=O)C1CC(=O)CN1C(=O)OCC (racemic) [N-(ethoxycarbonyl)-4-keto-D,L-proline ethyl ester]
- conversion of the racemic mixture [1, 13]: 51%
- enantiomeric excess of the D-isomer (KDP(EEEC)) [1, 13]: 100%

Molecule: COC(=O)[C@H]1CC(=O)CN1C(=O)Cc1ccccc1 [N-(2-phenylacetyl)-4-keto-D-proline methyl ester]
- isomer remaining ([1]; 28 h): 97%

B1: protease, type VIII: commercial enzyme preparation, source Bacillus licheniformis (protein, UniProt P00780 106-379, looked up)
Subtilisin Carlsberg: AQTVPYGIPLIKADKVQAQGFKGANVKVAVLDTGIQASHPDLNVVGGASFVAGEAYNTDGNGHGTHVAGTVAALDNTTGVLGVAPSVSLYAVKVLNSSGSGSYSGIVSGIEWATTNGMDVINMSLGGASGSTAMKQAVDNAYAKGVVVVAAAGNSGSSGNTNTIGYPAKYDSVIAVGAVDSNSNRASFSSVGAELEVMAPGAGVYSTYPTNTYATLNGTSMASPHVAGAAALILSKHPNLSASQVRNRLSSTATYLGSSFYYGKGLINVEAAAQ
- conv. (percent conversion of the racemate) ([2]; 0.20M sodium succinate pH 6.0, 5 h or 0.20M sodium acetate pH 5.0, 24 h): 32%
- % ee (enantiomeric excess of the D-isomer; L-isomer with porcine liver esterase) ([2]; pH 6.0, 5 h or pH 5.0, 24 h): 23%
- conv. (percent conversion of the diastereomeric mixture) [3, 14]: 16%
- % de (diastereomeric excess of the D-isomer, CHDP(MEMC)) ([3]; pH 7.0): 16%
- conv. (percent conversion of the diastereomeric mixture) [4, 14]: 4%
- % de (diastereomeric excess of the cis-L-isomer) ([4]; pH 7.0): 6%
